# ChEMBL document CHEMBL1201862, “PubChem BioAssay data set” (2004)
# The source made the active and inactive calls.
# How the values were obtained:
# [1] = viability of uninfected HEp-2 cells – cell-based, HTS, cytotoxicity control for RSV inhibitor project, dose response (AID 2410); format: functional; conditions: human respiratory syncytial virus
# cells [2] = test: cells
# Estrogen receptor beta [3] = biological target: T1, Estrogen receptor beta (Homo sapiens, UniProt Q92731); test: blockers of SRC-3 recruitment to ERβ – biochemical, ELISA, streptavidin-HRP readout, orthogonal assay, confirmation (AID 1060)
# Estrogen receptor beta [4] = biological target: T1, Estrogen receptor beta
# [5] = biological target: Peroxisome proliferator-activated receptor gamma/Nuclear receptor coactivator 1 (Homo sapiens, UniProt P37231); format: functional;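 further: agonist potency as compounds enhance coactivator SRC-1 recruitment to PPARgamma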
# [6] = biological target: Peroxisome proliferator-activated receptor gamma/Nuclear receptor coactivator 3 (Homo sapiens, UniProt P37231); format: functional;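 further: agonist potency for raising coactivator recruitment to the receptor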
# [7] = biological target: Peroxisome proliferator-activated receptor gamma/Nuclear receptor coactivator 2 (Homo sapiens, UniProt P37231); format: functional;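 further: agonist potency for raising coactivator recruitment to the receptor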
# [8] = biological target: T2, Mannose-6-phosphate isomerase (Homo sapiens, UniProt P34949); test: MPI inhibition at elevated mannose 6-phosphate – biochemical, fluorescence intensity, high mannose 6-phosphate, primary screen (AID 1220)
# T2 sequence (P34949 whole entry): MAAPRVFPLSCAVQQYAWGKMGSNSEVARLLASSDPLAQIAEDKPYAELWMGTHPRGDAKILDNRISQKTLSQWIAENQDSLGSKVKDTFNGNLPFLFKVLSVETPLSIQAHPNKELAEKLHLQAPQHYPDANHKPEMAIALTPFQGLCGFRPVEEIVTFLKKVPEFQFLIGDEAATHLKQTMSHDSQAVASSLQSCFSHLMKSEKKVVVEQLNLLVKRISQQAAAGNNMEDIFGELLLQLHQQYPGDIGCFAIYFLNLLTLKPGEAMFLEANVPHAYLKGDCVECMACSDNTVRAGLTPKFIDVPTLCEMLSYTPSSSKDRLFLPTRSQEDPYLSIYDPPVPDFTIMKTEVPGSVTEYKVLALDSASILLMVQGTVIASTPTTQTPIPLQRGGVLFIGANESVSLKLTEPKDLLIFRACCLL
# [9] = biological target: T2, Mannose-6-phosphate isomerase; test: MPI enzyme activity inhibition – biochemical, fluorescence intensity, coupled assay, primary screen (AID 1209)
# [10] = biological target: T3, Sentrin-specific protease 8 (Homo sapiens, UniProt Q96LD8); test: inhibition of human SENP8 cleavage activity – biochemical, luminescence, SAR follow-up (AID 504501); format: functional
# T3 sequence (Q96LD8 whole entry): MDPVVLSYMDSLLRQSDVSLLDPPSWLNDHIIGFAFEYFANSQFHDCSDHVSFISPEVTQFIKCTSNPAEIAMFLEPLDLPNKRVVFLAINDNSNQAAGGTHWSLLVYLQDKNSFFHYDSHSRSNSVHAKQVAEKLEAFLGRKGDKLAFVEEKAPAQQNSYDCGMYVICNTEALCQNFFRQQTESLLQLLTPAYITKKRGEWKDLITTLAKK
# Caspase-3 = biological target: T4, Caspase-3 (Homo sapiens, UniProt P42574); test: SAR Analysis of small molecule inhibitors of Sentrin-specific proteases (SENPs) using a Caspase-3 Selectivity assay. [Related pubchem assays (depositor defined):AID2540, AID2599, AID434973, AID489001]; format: functional
# T4 sequence (P42574 whole entry): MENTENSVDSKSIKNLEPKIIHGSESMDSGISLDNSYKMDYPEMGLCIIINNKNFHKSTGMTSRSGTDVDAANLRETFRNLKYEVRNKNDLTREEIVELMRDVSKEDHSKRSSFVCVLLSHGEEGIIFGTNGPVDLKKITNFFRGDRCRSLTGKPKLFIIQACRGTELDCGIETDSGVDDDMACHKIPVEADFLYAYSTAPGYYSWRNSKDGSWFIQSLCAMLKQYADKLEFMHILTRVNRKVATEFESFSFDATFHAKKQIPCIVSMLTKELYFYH
# [11] = biological target: T5, Sentrin-specific protease 6 (Homo sapiens, UniProt Q9GZR1); test: SAR Analysis of small molecule inhibitors of Sentrin-specific protease 6 (SENP6) using a Luminescent assay. [Related pubchem assays (depositor defined):AID2582, AID2599]; format: functional
# T5 sequence (Q9GZR1 whole entry): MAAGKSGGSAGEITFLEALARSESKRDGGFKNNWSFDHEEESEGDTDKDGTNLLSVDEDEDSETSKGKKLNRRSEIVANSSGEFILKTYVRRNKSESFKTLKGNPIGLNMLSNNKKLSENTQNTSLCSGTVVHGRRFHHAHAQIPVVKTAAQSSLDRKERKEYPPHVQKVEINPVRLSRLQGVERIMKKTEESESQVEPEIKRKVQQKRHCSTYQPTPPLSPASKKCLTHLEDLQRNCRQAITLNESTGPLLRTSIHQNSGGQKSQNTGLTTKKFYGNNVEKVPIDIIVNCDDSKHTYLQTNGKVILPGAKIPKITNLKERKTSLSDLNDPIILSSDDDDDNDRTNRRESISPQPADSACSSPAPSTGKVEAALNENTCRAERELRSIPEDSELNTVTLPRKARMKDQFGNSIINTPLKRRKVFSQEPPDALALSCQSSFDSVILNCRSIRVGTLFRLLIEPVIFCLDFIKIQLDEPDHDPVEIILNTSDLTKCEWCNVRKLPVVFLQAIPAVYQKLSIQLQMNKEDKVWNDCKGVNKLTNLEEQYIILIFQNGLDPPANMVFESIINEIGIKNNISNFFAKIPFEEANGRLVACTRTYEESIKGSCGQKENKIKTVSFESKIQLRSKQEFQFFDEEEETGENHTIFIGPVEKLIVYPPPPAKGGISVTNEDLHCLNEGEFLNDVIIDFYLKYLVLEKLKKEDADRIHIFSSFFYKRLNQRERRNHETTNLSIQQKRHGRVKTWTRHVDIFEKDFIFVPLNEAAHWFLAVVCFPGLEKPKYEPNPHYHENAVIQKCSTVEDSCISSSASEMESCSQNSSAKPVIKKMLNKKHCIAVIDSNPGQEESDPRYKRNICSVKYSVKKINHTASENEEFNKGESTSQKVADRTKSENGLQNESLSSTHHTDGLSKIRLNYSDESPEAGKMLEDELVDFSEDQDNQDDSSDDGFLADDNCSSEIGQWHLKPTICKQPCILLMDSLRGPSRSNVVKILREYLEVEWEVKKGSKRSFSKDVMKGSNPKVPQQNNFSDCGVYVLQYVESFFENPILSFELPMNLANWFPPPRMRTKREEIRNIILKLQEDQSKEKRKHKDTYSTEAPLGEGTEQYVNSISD
# [12] = biological target: T6, Sentrin-specific protease 7 (Homo sapiens, UniProt Q9BQF6); test: inhibition of human SENP7 cleavage activity – biochemical, luminescence, SAR follow-up (AID 504497); format: functional
# T6 sequence (Q9BQF6 whole entry): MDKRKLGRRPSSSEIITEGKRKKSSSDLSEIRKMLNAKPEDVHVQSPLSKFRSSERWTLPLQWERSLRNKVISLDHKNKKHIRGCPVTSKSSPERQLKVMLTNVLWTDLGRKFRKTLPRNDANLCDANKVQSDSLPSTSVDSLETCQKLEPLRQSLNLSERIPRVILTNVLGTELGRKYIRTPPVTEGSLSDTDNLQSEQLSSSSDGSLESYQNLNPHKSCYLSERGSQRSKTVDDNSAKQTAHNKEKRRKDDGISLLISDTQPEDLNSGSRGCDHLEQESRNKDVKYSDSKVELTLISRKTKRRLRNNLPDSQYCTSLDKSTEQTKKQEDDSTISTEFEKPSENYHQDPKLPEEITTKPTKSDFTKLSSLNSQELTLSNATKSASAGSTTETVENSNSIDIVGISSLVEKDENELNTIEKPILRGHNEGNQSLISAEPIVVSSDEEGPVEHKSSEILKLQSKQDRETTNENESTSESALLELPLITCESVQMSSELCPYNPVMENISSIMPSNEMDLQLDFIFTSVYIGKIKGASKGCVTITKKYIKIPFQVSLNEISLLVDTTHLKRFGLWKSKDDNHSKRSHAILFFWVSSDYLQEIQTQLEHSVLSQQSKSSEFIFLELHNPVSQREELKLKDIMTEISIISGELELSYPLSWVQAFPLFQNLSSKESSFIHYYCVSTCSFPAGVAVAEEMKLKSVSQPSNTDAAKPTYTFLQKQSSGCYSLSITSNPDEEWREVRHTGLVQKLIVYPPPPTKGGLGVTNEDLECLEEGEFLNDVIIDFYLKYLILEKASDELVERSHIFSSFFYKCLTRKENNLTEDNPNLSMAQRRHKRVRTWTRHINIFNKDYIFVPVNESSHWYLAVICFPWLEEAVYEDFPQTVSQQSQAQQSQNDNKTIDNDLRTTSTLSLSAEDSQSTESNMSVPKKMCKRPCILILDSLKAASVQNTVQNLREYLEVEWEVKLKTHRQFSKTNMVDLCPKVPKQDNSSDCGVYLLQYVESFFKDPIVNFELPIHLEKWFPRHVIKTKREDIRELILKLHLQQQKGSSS
# Estrogen receptor = biological target: T7, Estrogen receptor (Homo sapiens, UniProt P03372);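 further: potency for inhibiting coactivator peptide recruitment to the receptor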
# T7 sequence (P03372 whole entry): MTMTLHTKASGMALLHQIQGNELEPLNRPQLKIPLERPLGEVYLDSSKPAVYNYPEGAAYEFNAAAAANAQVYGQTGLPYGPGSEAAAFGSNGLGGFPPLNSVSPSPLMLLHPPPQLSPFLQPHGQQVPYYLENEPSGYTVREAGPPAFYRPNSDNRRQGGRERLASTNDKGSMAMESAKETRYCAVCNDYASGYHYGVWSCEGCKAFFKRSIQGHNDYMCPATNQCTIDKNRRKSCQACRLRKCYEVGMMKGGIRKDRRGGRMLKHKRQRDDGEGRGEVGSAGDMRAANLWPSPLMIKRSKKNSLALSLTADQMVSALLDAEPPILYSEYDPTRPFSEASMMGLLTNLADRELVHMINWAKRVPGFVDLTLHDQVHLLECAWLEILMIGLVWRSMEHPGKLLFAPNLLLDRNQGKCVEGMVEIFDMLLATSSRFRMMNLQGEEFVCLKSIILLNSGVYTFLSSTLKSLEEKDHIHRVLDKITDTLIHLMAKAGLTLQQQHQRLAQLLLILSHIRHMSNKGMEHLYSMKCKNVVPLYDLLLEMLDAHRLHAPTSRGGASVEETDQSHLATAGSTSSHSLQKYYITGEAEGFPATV
# [13] = biological target: 72 kDa type IV collagenase (Homo sapiens, UniProt P08253); test: Dose Response validation of uHTS RPN11 inhibitor hits using a MMP-2 Fluorescence assay.; format: functional
# [14] = biological target: 26S proteasome non-ATPase regulatory subunit 14 (Homo sapiens, UniProt O00487); test: inhibition of proteasome subunit RPN11 – biochemical, fluorescence polarization, uHTS hits, confirmation (AID 602368); format: functional
# Streptokinase A = biological target: T8, Streptokinase A (Streptococcus pyogenes serotype M1, UniProt P10520); test: viability-normalized secreted streptokinase activity reduction – plasminogen activation absorbance, OD405, dose response (AID 1914); format: functional, Streptococcus pyogenes M1 GAS;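 further: secreted streptokinase activity via plasminogen activation per viability signal from cell pellet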
# T8 sequence (P10520 whole entry): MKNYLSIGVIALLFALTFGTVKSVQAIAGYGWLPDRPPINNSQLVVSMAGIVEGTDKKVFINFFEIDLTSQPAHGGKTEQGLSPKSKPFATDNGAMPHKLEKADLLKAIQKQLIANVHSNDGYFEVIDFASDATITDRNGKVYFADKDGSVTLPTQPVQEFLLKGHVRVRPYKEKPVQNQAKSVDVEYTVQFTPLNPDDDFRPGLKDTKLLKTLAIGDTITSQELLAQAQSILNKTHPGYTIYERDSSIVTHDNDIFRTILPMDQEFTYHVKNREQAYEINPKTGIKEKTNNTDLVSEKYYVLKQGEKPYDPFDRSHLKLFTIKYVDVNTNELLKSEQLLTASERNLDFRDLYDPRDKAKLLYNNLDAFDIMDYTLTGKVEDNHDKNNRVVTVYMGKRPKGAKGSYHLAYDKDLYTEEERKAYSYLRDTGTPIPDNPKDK
# Streptococcus = test: GAS UMAA2166 growth inhibition – luminescence, BacTiterGlo, counter-screen for streptokinase expression inhibitor project, dose response (AID 1915); format: functional, organism-based;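 further: potency for reduction of bacterial viability or growth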
# cells [15] = test: cells; remark: listed apart in the source
# [16] = test system: Streptococcus sp. 'group A'; test: Streptococcus pyogenes SK(-)GAS viability under kanamycin – luminescence, BacTiterGlo, confirmation, counter-screen for streptokinase expression inhibitor project, dose response (AID 1900); format: functional, organism-based
# [17] = Trypanosoma cruzi growth suppression in host cells – NIH3T3 host cells, beta-gal luminescence, confirmation (AID 2044); format: functional, cell-based;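 further: intracellular parasites grown in NIH/3T3 mouse fibroblasts as host cells; luminescent beta-galactosidase reporter signal from transgenic T. cruzi replicating inside host cells; inhibitors lower the luminescence signal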
# Prothrombin = Prothrombin (Bos taurus, UniProt P00735); test: thrombin protease inhibitors – biochemical, fluorescence polarization, uHTS hits, dose response (AID 602369); format: functional
# [18] = NIH3T3 cell viability loss – ATP luminescence, mouse fibroblasts, counter-screen, dose response (AID 2010); format: functional, cell-based;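 further: cells exposed to compound for about 90 hours before reading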
# [19] = biological target: Glyceraldehyde-3-phosphate dehydrogenase (Homo sapiens, UniProt P04406)
# T1 sequence (Q92731 whole entry): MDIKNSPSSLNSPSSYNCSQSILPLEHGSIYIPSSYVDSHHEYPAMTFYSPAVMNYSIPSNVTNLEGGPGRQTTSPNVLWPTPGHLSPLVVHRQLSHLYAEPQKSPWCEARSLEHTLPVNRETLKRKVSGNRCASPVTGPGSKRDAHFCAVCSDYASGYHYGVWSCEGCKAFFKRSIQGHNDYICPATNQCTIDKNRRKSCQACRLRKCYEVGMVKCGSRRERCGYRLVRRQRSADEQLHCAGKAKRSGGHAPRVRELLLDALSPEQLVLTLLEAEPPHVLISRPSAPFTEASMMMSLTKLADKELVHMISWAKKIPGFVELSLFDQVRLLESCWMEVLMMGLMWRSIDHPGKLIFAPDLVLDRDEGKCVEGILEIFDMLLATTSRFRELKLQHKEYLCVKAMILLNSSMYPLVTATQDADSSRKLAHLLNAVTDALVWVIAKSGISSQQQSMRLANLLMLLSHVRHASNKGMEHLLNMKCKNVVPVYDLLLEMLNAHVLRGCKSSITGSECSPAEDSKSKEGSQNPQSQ
# Sequence of Peroxisome proliferator-activated receptor gamma/Nuclear receptor coactivator 1 (P37231 whole entry): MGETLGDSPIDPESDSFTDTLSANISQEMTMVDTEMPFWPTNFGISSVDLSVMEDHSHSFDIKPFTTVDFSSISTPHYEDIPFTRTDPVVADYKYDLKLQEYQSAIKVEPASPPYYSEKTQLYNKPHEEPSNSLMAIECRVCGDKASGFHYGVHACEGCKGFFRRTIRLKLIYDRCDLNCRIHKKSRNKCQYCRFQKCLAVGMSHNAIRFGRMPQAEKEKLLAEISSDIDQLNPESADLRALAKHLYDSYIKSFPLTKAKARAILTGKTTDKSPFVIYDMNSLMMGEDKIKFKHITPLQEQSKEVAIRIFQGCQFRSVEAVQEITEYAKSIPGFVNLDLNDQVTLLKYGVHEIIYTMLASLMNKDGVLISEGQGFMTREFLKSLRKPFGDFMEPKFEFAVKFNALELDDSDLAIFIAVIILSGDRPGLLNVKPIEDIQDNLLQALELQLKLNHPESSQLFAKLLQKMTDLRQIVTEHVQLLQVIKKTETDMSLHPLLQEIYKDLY
# Sequence of Peroxisome proliferator-activated receptor gamma/Nuclear receptor coactivator 1 (Q15788 whole entry, further chain): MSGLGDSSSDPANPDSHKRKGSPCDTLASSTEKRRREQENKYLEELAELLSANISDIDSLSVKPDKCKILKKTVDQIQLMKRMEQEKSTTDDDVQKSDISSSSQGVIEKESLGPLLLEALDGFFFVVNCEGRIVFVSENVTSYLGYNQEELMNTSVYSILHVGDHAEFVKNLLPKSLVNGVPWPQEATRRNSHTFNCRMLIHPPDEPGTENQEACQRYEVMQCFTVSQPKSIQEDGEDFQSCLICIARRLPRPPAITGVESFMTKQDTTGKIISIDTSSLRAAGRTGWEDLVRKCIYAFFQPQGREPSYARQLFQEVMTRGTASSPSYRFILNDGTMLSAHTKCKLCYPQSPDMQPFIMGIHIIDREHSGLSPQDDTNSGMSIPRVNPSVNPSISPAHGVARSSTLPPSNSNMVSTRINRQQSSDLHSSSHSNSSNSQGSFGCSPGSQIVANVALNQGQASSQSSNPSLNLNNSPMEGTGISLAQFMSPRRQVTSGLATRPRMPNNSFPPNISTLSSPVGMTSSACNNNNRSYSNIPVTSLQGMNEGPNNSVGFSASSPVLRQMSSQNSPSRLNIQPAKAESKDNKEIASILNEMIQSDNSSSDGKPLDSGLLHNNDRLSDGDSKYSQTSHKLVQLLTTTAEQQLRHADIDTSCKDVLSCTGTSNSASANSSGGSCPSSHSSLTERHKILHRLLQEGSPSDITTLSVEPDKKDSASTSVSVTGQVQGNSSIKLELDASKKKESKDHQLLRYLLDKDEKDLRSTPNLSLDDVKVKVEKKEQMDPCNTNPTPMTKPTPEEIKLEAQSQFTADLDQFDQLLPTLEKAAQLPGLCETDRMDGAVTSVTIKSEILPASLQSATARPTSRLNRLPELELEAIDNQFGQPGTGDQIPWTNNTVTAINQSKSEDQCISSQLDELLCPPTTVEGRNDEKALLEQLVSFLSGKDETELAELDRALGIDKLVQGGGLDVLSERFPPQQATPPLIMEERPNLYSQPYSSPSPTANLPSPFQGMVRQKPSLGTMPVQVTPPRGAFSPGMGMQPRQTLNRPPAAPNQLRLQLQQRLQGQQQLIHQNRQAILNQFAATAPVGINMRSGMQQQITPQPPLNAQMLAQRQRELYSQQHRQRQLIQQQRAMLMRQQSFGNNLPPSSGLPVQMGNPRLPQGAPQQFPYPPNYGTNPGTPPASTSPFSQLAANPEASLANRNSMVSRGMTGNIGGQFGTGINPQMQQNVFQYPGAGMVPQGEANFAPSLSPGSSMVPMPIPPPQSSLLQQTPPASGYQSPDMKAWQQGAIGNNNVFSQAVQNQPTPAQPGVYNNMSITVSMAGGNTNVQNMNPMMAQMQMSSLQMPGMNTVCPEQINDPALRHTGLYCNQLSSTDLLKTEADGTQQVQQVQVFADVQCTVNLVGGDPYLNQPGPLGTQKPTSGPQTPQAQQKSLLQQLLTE
# Sequence of Peroxisome proliferator-activated receptor gamma/Nuclear receptor coactivator 3 (P37231 whole entry): as the sequence (P37231 whole entry) above
# Sequence of Peroxisome proliferator-activated receptor gamma/Nuclear receptor coactivator 3 (Q9Y6Q9 whole entry, further chain): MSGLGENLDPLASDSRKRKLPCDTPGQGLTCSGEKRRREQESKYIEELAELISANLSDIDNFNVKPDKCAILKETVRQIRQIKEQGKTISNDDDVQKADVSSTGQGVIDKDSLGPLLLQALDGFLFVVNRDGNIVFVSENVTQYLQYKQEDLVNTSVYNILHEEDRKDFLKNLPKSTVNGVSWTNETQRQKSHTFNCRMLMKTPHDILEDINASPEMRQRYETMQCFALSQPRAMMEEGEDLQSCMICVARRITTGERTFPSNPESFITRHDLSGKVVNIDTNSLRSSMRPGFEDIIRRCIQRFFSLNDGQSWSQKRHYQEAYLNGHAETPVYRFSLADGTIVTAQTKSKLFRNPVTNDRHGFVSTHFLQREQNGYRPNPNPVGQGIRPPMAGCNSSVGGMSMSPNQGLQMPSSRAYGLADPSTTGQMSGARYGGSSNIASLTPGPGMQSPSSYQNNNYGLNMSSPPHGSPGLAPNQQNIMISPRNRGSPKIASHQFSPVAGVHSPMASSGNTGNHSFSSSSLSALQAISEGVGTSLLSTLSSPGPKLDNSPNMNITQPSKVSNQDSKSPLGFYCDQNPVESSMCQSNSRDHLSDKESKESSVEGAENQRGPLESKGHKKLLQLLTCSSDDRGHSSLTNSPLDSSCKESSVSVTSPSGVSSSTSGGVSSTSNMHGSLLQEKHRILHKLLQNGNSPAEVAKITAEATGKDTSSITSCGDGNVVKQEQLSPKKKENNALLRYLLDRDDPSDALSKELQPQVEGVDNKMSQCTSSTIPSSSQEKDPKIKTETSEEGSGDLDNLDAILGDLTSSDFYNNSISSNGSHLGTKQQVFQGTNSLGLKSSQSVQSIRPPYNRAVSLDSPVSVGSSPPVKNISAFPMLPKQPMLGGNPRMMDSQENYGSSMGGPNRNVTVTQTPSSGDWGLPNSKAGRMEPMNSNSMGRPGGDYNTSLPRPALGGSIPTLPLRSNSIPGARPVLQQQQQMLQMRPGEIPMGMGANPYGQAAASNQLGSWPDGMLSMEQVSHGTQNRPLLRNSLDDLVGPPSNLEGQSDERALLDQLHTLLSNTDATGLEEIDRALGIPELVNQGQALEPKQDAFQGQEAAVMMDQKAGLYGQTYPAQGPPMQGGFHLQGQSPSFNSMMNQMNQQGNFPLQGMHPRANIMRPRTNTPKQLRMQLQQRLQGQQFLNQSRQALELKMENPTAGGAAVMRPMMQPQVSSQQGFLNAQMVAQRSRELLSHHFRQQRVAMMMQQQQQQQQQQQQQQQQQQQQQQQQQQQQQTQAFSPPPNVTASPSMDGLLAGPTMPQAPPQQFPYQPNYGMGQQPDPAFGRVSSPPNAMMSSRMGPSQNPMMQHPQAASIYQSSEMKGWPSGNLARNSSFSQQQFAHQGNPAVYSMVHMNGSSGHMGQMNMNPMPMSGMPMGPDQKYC
# Sequence of 72 kDa type IV collagenase (P08253 whole entry): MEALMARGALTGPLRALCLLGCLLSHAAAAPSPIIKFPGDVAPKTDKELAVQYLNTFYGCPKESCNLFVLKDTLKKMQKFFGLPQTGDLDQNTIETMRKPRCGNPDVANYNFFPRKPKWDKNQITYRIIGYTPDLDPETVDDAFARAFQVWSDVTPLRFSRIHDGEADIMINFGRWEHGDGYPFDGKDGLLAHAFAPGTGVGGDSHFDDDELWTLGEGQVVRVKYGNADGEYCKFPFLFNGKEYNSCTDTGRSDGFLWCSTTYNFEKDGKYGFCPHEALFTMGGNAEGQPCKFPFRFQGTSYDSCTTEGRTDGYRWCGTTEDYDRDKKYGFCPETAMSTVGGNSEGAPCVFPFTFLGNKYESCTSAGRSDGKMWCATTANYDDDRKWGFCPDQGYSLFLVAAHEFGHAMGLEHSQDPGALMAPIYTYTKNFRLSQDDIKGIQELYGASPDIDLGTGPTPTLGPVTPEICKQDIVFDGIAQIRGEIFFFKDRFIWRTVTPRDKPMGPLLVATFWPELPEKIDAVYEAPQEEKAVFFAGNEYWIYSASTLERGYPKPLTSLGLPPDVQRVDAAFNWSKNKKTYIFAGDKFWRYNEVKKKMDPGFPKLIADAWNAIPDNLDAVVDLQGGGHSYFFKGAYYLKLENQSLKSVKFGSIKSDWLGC
structure (smiles),measurement,setting,value
COc1ccccc1/C=C/C(=O)N1CCc2cc(OC)c(OC)cc2C1C (stereo unspecified),CC50,[1],> 50 µM (active)
same,IC50,cells [2],17.8 µM (active)
c1csc(Cc2nn3c(-c4n[nH]c5c4CCC5)nnc3s2)c1,IC50,Estrogen receptor beta [3],> 50 µM (not active)
same,IC50,Estrogen receptor beta [4],> 50 µM (not active)
same,EC50,[5],> 79.4 µM (not active)
same,EC50,[6],> 79.4 µM (not active)
same,EC50,[7],> 79.4 µM (not active)
Oc1cccc(/C=N/Nc2cc(N3CCOCC3)nc(N3CCOCC3)n2)c1,IC50,[8],> 50 µM (not active)
same,IC50,[9],> 50 µM (not active)
same,IC50,[10],> 99 µM (inactive)
same,IC50,Caspase-3,> 99 µM (inactive)
same,IC50,[11],89.1 µM (active)
same,IC50,[12],80.5 µM (active)
Cc1ccc(NS(=O)(=O)c2cccc(C(=O)OCC(=O)NCc3ccco3)c2)cc1,IC50,Estrogen receptor,30.6 µM (not active)
Cc1ccc(NC(=O)C2CCCN2S(=O)(=O)c2cccc3cccnc23)c(C)c1 (stereo unspecified),CC50,[1],42.9 µM (active)
same,IC50,cells [2],1.86 µM (active)
COc1ccc2nc3c(O)n(/N=C/c4ccc(OC)c(CN5CCCC5)c4)c(C)nc-3c2c1,IC50,[13],> 100 µM (inactive)
same,IC50,[14],13 µM (active)
same,EC50,Streptokinase A,32.3 µM (active)
same,EC50,Streptococcus,> 150 µM (not active)
same,EC50,cells [15],0.336 µM (active)
same,EC50,[16],17.8 µM (active)
same,EC50,[17],< 0.1 µM (active)
same,IC50,Prothrombin,87.9 µM (active)
same,EC50,[18],> 60 µM (not active)
O=C1C(Cl)=C(N2CCN(C/C=C/c3ccccc3)CC2)C(=O)N1c1ccc(C(F)(F)F)cc1,IC50,[19],> 50 µM (inconclusive)
